Measurements from ChEMBL document CHEMBL5247609, “Novel nitric oxide-releasing derivatives of pyranocarbazole as antitumor agents: Design, synthesis, biological evaluation, and nitric oxide release studies” (Eur J Med Chem, 2022).
Calls of active or inactive are those of the source. No cut-off for these calls is given here.

Experiments:
EMT6 [1] = assay: Antitumor activity against mouse EMT6 cells allografted in BALBC mouse assessed as reduction in tumor progression at 150 mg/kg, IG administered every 3 days for 21 days; assay type: functional, organism-based; conditions: time 21.0 day
MDA-MB-231 [2] = assay: Induction of cell cycle arrest in human MDA-MB-231 cells assessed as decrease in cyclin B1 expression at 0.5 to 2 uM by Western blotting analysis; assay type: functional, cell-based; conditions: dose 0.5-2 µM, time 24.0 hrs
MDA-MB-231 [3] = assay: Induction of apoptosis in human MDA-MB-231 cells assessed as early apoptotic cells measured at 5 uM after 48 hrs by FITC-Annexin-V and propidium iodide based flow cytometric analysis (reference value: 2.71%); assay type: functional
MX1 [4] = assay: Induction of apoptosis in human MX1 cells assessed as late apoptotic cells measured at 0.5 uM after 48 hrs by FITC-Annexin-V and propidium iodide based flow cytometric analysis (reference value: 5.24%); assay type: functional
MX1 [5] = assay: Induction of apoptosis in human MX1 cells assessed as early apoptotic cells measured at 5 uM after 48 hrs by FITC-Annexin-V and propidium iodide based flow cytometric analysis (reference value: 6.30%); assay type: functional
MDA-MB-231 [6] = assay: Induction of apoptosis in human MDA-MB-231 cells assessed as late apoptotic cells measured at 5 uM after 48 hrs by FITC-Annexin-V and propidium iodide based flow cytometric analysis (reference value: 2.68%); assay type: functional
MDA-MB-231 [7] = assay: Induction of cell cycle arrest in human MDA-MB-231 cells assessed as accumulation of cells at G0/G1 phase incubated for 24 hrs by propidium iodide staining based FACS calibur flow cytometeric analysis; assay type: functional; conditions: dose 0.5-2 µM
MX1 [8] = assay: Induction of cell cycle arrest in human MX1 cells assessed as decrease in cyclin B1 expression at 0.5 to 2 uM by Western blotting analysis; assay type: functional, cell-based; conditions: dose 0.5-2 µM, time 24.0 hrs
MDA-MB-231 [9] = assay: Induction of apoptosis in human MDA-MB-231 cells assessed as late apoptotic cells measured at 1 uM after 48 hrs by FITC-Annexin-V and propidium iodide based flow cytometric analysis (reference value: 2.68%); assay type: functional
MX1 [10] = assay: Induction of apoptosis in human MX1 cells assessed as total apoptotic cells measured at 5 uM after 48 hrs by FITC-Annexin-V and propidium iodide based flow cytometric analysis (reference value: 16.36%); assay type: functional
MDA-MB-231 [11] = assay: Induction of morphological changes in human MDA-MB-231 cells at 0.5 to 2 uM measured after 24 hrs by bright field inverted microscopic analysis; assay type: functional, cell-based; conditions: dose 0.5-2 µM
MX1 [12] = assay: Induction of apoptosis in human MX1 cells assessed as viable cells measured at 2 uM after 48 hrs by FITC-Annexin-V and propidium iodide based flow cytometric analysis (reference value: 88.4%); assay type: functional; conditions: read-out: Activity
MDA-MB-231 [13] = assay: Induction of apoptosis in human MDA-MB-231 cells assessed as increase in cleaved PARP expression at 0.5 to 2 uM by Western blotting analysis; assay type: functional, cell-based; conditions: dose 0.5-2 µM
MDA-MB-231 [14] = assay: Inhibition of PI3K/Akt signaling in human MDA-MB-231 cells assessed as decrease in phosphorylated S6 expression incubated for 24 hrs by Western blotting analysis; assay type: cell-based; conditions: dose 0.5-2 µM
MDA-MB-231 [15] = assay: Induction of apoptosis in human MDA-MB-231 cells assessed as necrotic cells measured at 0.5 uM after 48 hrs by FITC-Annexin-V and propidium iodide based flow cytometric analysis (reference value: 0.253 %); assay type: functional
MDA-MB-231 [16] = assay: Induction of apoptosis in human MDA-MB-231 cells assessed as necrotic cells measured at 1 uM after 48 hrs by FITC-Annexin-V and propidium iodide based flow cytometric analysis (reference value: 0.253 %); assay type: functional
MX1 [17] = assay: Induction of apoptosis in human MX1 cells assessed as early apoptotic cells measured at 2 uM after 48 hrs by FITC-Annexin-V and propidium iodide based flow cytometric analysis (reference value: 6.30%); assay type: functional
MX1 [18] = assay: Induction of apoptosis in human MX1 cells assessed as late apoptotic cells measured at 2 uM after 48 hrs by FITC-Annexin-V and propidium iodide based flow cytometric analysis (reference value: 5.24%); assay type: functional
MX1 [19] = assay: Induction of apoptosis in human MX1 cells assessed as necrotic cells measured at 5 uM after 48 hrs by FITC-Annexin-V and propidium iodide based flow cytometric analysis (reference value: 0.055 %); assay type: functional
MDA-MB-231 [20] = assay: Induction of morphological changes in human MDA-MB-231 cells assessed as decrease in cell number at 0.5 to 2 uM measured after 24 hrs by bright field inverted microscopic analysis; assay type: functional, cell-based; conditions: dose 0.5-2 µM
MDA-MB-231 [21] = assay: Induction of cell cycle arrest in human MDA-MB-231 cells assessed as increase in CDK6 expression at 0.5 to 2 uM by Western blotting analysis; assay type: functional, cell-based; conditions: dose 0.5-2 µM, time 24.0 hrs
MDA-MB-231 [22] = assay: Antiproliferative activity against human MDA-MB-231 cells assessed as decrease in number of colony formation at 0.25 uM measured after 14 days by crystal violet staining based analysis; assay type: functional, cell-based; conditions: time 14.0 day
MX1 [23] = assay: Induction of morphological changes in human MX1 cells assessed as decrease in cell size at 0.5 to 2 uM measured after 24 hrs by bright field inverted microscopic analysis; assay type: functional, cell-based; conditions: dose 0.5-2 µM
MX1 [24] = assay: Induction of apoptosis in human MX1 cells assessed as late apoptotic cells measured at 1 uM after 48 hrs by FITC-Annexin-V and propidium iodide based flow cytometric analysis (reference value: 5.24%); assay type: functional
EMT6 [25] = assay: Antitumor activity against mouse EMT6 cells allografted in BALBC mouse a assessed as reduction in tumor growth inhibition at 150 mg/kg, IG administered every 3 days for 21 days relative to control; assay type: functional; conditions: EMT6, po, 504 h, time 21 day, read-out: TGI
MDA-MB-231 [26] = assay: Induction of apoptosis in human MDA-MB-231 cells assessed as necrotic cells measured at 5 uM after 48 hrs by FITC-Annexin-V and propidium iodide based flow cytometric analysis (reference value: 0.253 %); assay type: functional
MDA-MB-231 [27] = assay: Induction of apoptosis in human MDA-MB-231 cells assessed as late apoptotic cells measured at 0.5 uM after 48 hrs by FITC-Annexin-V and propidium iodide based flow cytometric analysis (reference value: 2.68%); assay type: functional
MX1 [28] = assay: Induction of apoptosis in human MX1 cells assessed as increase in cleaved PARP-1 expression at 0.5 to 2 uM by Western blotting analysis; assay type: functional, cell-based; conditions: dose 0.5-2 µM
MDA-MB-231 [29] = assay: Antitumor activity against human MDA-MB-231 cells xenografted in BALBC mouse assessed as inhibition of tumor growth at 24 mg/kg, ip administered every 3 days for 21 days relative to control; assay type: functional; conditions: MDA-MB-231, 504 h, time 21 day, read-out: TGI
MDA-MB-231 [30] = assay: Induction of apoptosis in human MDA-MB-231 cells assessed as upregulation of Bax by Western blotting analysis; assay type: functional, cell-based; conditions: dose 0.5-2 µM
MX1 [31] = assay: Induction of apoptosis in human MX1 cells assessed as early apoptotic cells measured at 1 uM after 48 hrs by FITC-Annexin-V and propidium iodide based flow cytometric analysis (reference value: 6.30%); assay type: functional
MDA-MB-231 [32] = assay: Induction of apoptosis in human MDA-MB-231 cells assessed as viable cells measured at 1 uM after 48 hrs by FITC-Annexin-V and propidium iodide based flow cytometric analysis (reference value: 94.4% ); assay type: functional; conditions: read-out: Activity
MDA-MB-231 [33] = assay: Induction of apoptosis in human MDA-MB-231 cells assessed as total apoptotic cells measured at 5 uM after 48 hrs by FITC-Annexin-V and propidium iodide based flow cytometric analysis (reference value: 6.2%); assay type: functional

Compound: CC1(C)C=Cc2c(c(/C=C/C(=O)NCCOc3no[n+]([O-])c3S(=O)(=O)c3ccccc3)cc3c2[nH]c2ccc(C(C)(C)C)cc23)O1
- Activity (EMT6 [1]): Active
- Activity (MDA-MB-231 [2]): Active
- Activity (MDA-MB-231 [3]): 31.2%
- Activity (MX1 [4]): 5.2%
- Activity (MX1 [5]): 57.8%
- Activity (MDA-MB-231 [6]): 20.8%
- Activity (MDA-MB-231 [7]): Dose-Dependent Effect
- Activity (MX1 [8]): Active
- Activity (MDA-MB-231 [9]): 4.85%
- Activity (MX1 [10]): 87.2%
- Activity (MDA-MB-231 [11]): Active
- viability at 2 µM (MX1 [12]): 11.9%
- Activity (MDA-MB-231 [13]): Active
- inhibition (MDA-MB-231 [14]): Active
- Activity (MDA-MB-231 [15]): 0.644%
- Activity (MDA-MB-231 [16]): 0.209%
- Activity (MX1 [17]): 85.3%
- Activity (MX1 [18]): 2.83%
- Activity (MX1 [19]): 0.276%
- Activity (MDA-MB-231 [20]): Active
- Activity (MDA-MB-231 [21]): Active
- Activity (MDA-MB-231 [22]): Active
- Activity (MX1 [23]): Active
- Activity (MX1 [24]): 8.1%
- inhibition in vivo at 150 mg/kg (EMT6 [25]): 50.1%
- Activity (MDA-MB-231 [26]): 0.867%
- Activity (MDA-MB-231 [27]): 3.85%
- Activity (MX1 [28]): Active
- inhibition in vivo at 24 mg/kg (MDA-MB-231 [29]): 84.3%
- Activity (MDA-MB-231 [30]): Dose-Dependent Effect
- Activity (MX1 [31]): 48.2%
- viability at 1 µM (MDA-MB-231 [32]): 91.2%
- Activity (MDA-MB-231 [33]): 71.2%
